# Laboratory results: PMC12143354, “Determining sex differences in aortic valve myofibroblast responses to drug combinations identified using a digital medicine platform” (Science Advances, 2025)
# Like-named read-outs stand apart in the source and are kept apart here.
# Legend:
# male VICs [1] = experiment: percent αSMA GMI reduction, male VICs on stiff hydrogels; assay type: cell-based, pig; details: male VICs; for EC1 / EC2: from dose response curves; for Percent αSMA reduction, Average: n = 3-4 gels
# Description: (§1) Glass-bottom 96-well plates (Cellvis) were placed in an autoclave jar with a scintillation vial containing 100 μl of mercaptopropyltrimethoxysilane (MPTS; Sigma-Aldrich). The autoclave jar was then lightly sealed and placed inside an oven at 60°C for a minimum of 6 hours. The autoclave jar was opened in a chemical fume hood, and the vapor-deposited well plate was stored for up to 2 hours until ready for use. Eight-arm 20-kDa PEG-norbornene (PEG-Nb) was formed as outlined previously ([76]). A 7% (w/v) PEG-Nb hydrogel precursor solution was formed by combining phosphate-buffered saline (PBS), 20-kDa PEG-Nb at a 0.98:1 thiol-to-ene ratio, 5-kDa PEG-dithiol (Jenkem), CRGDS cell binding motif (Bachem), and lithium phenyl-2,4,6-trimethyl-benzoylphosphinate (Thermo Fisher Scientific). An EPMotion 5073l automated liquid handling system (Eppendorf) was used to pipet 7 μl of the hydrogel precursor solution into the center of each well of the vapor-deposited 96-well glass-bottom plate. The well plate with the hydrogel precursor solution was then stamped using a custom 96-well plate stamp, inverted, and cured under ultraviolet light at 10 mW/cm^2 for 3 min to induce gelation. The stamp was carefully removed by hand, and the newly formed gels were sterilized with a solution of 5% isopropyl alcohol (Thermo Fisher Scientific) in PBS for 20 min. Gels were then washed twice with PBS and stored in VIC media composed of Media199 (Life Technologies), 1% fetal bovine serum (FBS, Life Technologies), amphotericin B (1 μg/ml; Thermo Fisher Scientific), penicillin (50 U/ml; Sigma-Aldrich), and streptomycin (50 μg/ml; Sigma-Aldrich). Last, the hydrogels were placed in an incubator at 37°C with 5% carbon dioxide for up to 24 hours until experimental use.
# (§2) Media changes were performed every 24 to 48 hours until cells reached ~80% confluency. […] The media solution was then aspirated, and VICs were resuspended with 1 ml of 1% FBS media. VICs were counted with an automated hemocytometer to calculate the volume of cell solution to add to each well to seed at 6400 cells per well (20,000 cells/cm^2) for TCPS and hydrogel experiments. For all experiments, VICs were seeded with 1% FBS media containing the specified drug doses and incubated at 37°C with 5% carbon dioxide with media changes every 48 to 72 hours if needed.
# (§3) Drug stock solutions were discarded after two thaw cycles or after 10 months of storage. For all experiments, drug dilutions were calculated and added to VIC media to ensure that total DMSO levels remained below 1% for cytotoxicity and αSMA reduction curve fitting experiments and below 0.3% for drug combination experiments.
# (§4) After culture on hydrogels or TCPS, the spent drug-containing media were removed, and VICs were immersed in a 4% paraformaldehyde solution in PBS for 20 min and then permeabilized for 1 hour with 0.1% Triton X-100 (Thermo Fisher Scientific) in PBS. Cells were then blocked with 5% bovine serum albumin in PBS for 1 hour at room temperature or over the weekend at 4°C. […] Last, VICs were washed once with PBS and then stored in PBS at 4°C until imaging. Gel samples were imaged in situ using a Nikon Eclipse Ti2-E and analyzed using an automated MATLAB code to quantify the αSMA gradient mean intensities and caspase-3 intensities normalized to cell mask for each cell. A minimum of 100 cells were used per gel with multiple gels used per condition.
# (§5) Curve fitting for VIC percent αSMA reduction and cytotoxicity was performed using GraphPad Prism 10 (GraphPad Software Inc). For each inhibitor, the nonlinear regression tool in Prism was used to estimate the response against the agonist by fitting the top, bottom, EC50/CC50, and hillslope to each dataset. After 2 days of culture, the percent αSMA reduction was calculated using the average αSMA gradient mean intensities of the control relative to the drug condition using Eq. 1 %αSMA reduction=100×(Control−Drug Condition/Control) (1)
# male VICs [2] = experiment: percent αSMA GMI reduction, male VICs on soft hydrogels; assay type: cell-based, pig; details: n = 3 gels
# Text: (§6) Last, we tested the ability of […]-designed combinations to prevent myofibroblast activation in VICs cultured on other substrates beyond stiff hydrogels. […] Six male-optimized combinations were effective in preventing male VIC myofibroblast activation (Fig. 7K). […] Single-drug monotherapies used in the top male and female drug combinations were confirmed to have a minimal effect on male and female VIC αSMA GMI on soft hydrogels (table S14). […] After aspirating off the spent media, VICs were resuspended in 5 ml of fresh 15% FBS media and seeded on T25 Falcon tissue culture-treated flasks (Thermo Fisher Scientific). […] VICs were collected by aspirating off spent media, washing with PBS (Sigma-Aldrich) for 1 min, then incubating with 1× trypsin (Life Technologies) for 3 min. Trypsin was neutralized with an equal volume of 15% FBS growth media and centrifuged for 5 min at 0.2g. The media solution was then aspirated, and VICs were resuspended with 1 ml of 1% FBS media. VICs were counted with an automated hemocytometer to calculate the volume of cell solution to add to each well to seed at 6400 cells per well (20,000 cells/cm^2) for TCPS and hydrogel experiments. […] For each inhibitor, the nonlinear regression tool in Prism was used to estimate the response against the agonist by fitting the top, bottom, EC50/CC50, and hillslope to each dataset.
# female VICs [3] = experiment: percent αSMA GMI reduction, female VICs on stiff hydrogels; assay type: cell-based, pig; details: for EC1 / EC2: from dose response curves; for Percent αSMA reduction, Average: n = 3-4 gels
# Description: as §1, §2, §3, §4, §5
# male VICs [4] = tested on: male VICs
# Description: as §4
# (§7) Percent cytotoxicity was determined by designating each cell as alive or dead using caspase-3 intensity normalized to cell mask intensity, which was thresholded using a positive and negative control for cell death [10 nM staurosporine (Cell Signaling Technologies) or 1% FBS media]. The bottom value for every curve fit was set to 0, and the top value was constrained to a maximum of 100 to indicate the maximum possible effect of the drug. […] Absolute EC and CC values for % αSMA reduction and percent cytotoxicity were quantified using the top, bottom, EC50/CC50, and hillslope values estimated from the curve fits generated in GraphPad Prism (GraphPad Software Inc).
# female VICs [5] = tested on: female VICs
# Description: as §4, §7
# male VICs [6] = experiment: percent αSMA GMI reduction by immunofluorescent staining, male VICs on TCPS; assay type: cell-based, pig; details: for reduction in αSMA GMI, initial screen: male VICs on TCPS, dosing range 10^-7 to 10^3 μM; for Percent αSMA reduction, Average: male VICs, n = 3 wells
# Description: (§8) VICs were collected by aspirating off spent media, washing with PBS (Sigma-Aldrich) for 1 min, then incubating with 1× trypsin (Life Technologies) for 3 min. Trypsin was neutralized with an equal volume of 15% FBS growth media and centrifuged for 5 min at 0.2g. The media solution was then aspirated, and VICs were resuspended with 1 ml of 1% FBS media. VICs were counted with an automated hemocytometer to calculate the volume of cell solution to add to each well to seed at 6400 cells per well (20,000 cells/cm^2) for TCPS and hydrogel experiments. […] For each inhibitor, the nonlinear regression tool in Prism was used to estimate the response against the agonist by fitting the top, bottom, EC50/CC50, and hillslope to each dataset.
# female VICs [7] = experiment: percent αSMA GMI reduction, female VICs on soft hydrogels; assay type: cell-based, pig; details: n = 3 gels
# Text: as §6
# female VICs [8] = experiment: percent αSMA GMI reduction by immunofluorescent staining, female VICs on TCPS; assay type: cell-based, pig; details: for reduction in αSMA GMI, initial screen: female VICs on TCPS, dosing range 10^-7 to 10^3 μM; for Percent αSMA reduction, Average: female VICs, TCPS, n = 3 wells
# Description: as §8
# [9] = male VICs, stiff hydrogels, from dose response curves
# [10] = female VICs, stiff hydrogels, from dose response curves
SMILES,EC1 (male VICs [1]),EC2 (male VICs [1]),"Percent αSMA reduction, Average (male VICs [1]; single drug at level 1 dose)","Percent αSMA reduction, Average (male VICs [1]; single drug at level 2 dose)","Percent αSMA reduction, Average (male VICs [2]; single drug at L2 dose)",EC1 (female VICs [3]),EC2 (female VICs [3]),"Percent αSMA reduction, Average (female VICs [3]; single drug at level 1 dose)","Percent αSMA reduction, Average (female VICs [3]; single drug at level 2 dose)","reduction in αSMA GMI, initial screen (male VICs [6])","Percent αSMA reduction, Average (male VICs [6]; TCPS, single drug at L2 dose)","Percent αSMA reduction, Average (female VICs [7]; single drug at L2 dose)","reduction in αSMA GMI, initial screen (female VICs [8])","Percent αSMA reduction, Average (female VICs [8]; single drug at L2 dose)","CC1 (male VICs [4]; male, pig)","CC2 (male VICs [4]; male, pig)","CC25 (percent cytotoxicity) (male VICs [4]; male, pig)","CC1 (female VICs [5]; female, pig)","CC2 (female VICs [5]; female, pig)","CC25 (percent cytotoxicity) (female VICs [5]; female, pig)",further results
Cc1cncc2cccc(S(=O)(=O)N3CCCNC[C@@H]3C)c12 [Combination H1152],1.96 µM,2.82 µM,-5.03%,0.66%,-5.04%,0.0765 µM,0.198 µM,8.04%,12.39%,> 25%,-0.09%,3.37%,> 25%,2.30%,,,,,,,"CC25 (percent cytotoxicity) (male VICs [4]; male VICs on stiff gels, n = 3 gels): 6.27 µM; CC1 (male VICs [4]; [9]): 0.162 µM; CC2 (male VICs [4]; [9]): 0.28 µM; CC25 (percent cytotoxicity) (female VICs [5]; female VICs on stiff gels, n = 3 gels): 72.6 µM; CC1 (female VICs [5]; [10]): 0.26 µM; CC2 (female VICs [5]; [10]): 0.806 µM"
C[C@@H](N)[C@H]1CC[C@H](C(=O)Nc2ccncc2)CC1 [Combination Y-27632],0.558 µM,1.34 µM,0.24%,2.37%,,1.31 µM,2.81 µM,28.93%,22.12%,> 25%,,8.24%,> 25%,-2.07%,,,,,,,"Percent αSMA reduction, Average (male VICs [2]; single drug at L1 dose): -2.58%; CC1 (male VICs [4]): 10.8 µM; CC2 (male VICs [4]): 19.9 µM; CC25 (percent cytotoxicity) (male VICs [4]): 224 µM; CC1 (female VICs [5]): 27.5 µM; CC2 (female VICs [5]): 37.9 µM; CC25 (percent cytotoxicity) (female VICs [5]): 135 µM; sex difference in efficacy (male versus female EC20) (male VICs [6]; TCPS, unpaired two-tailed t test, P < 0.05): significantly more effective in male VICs relative to female VICs; Percent αSMA reduction, Average (male VICs [6]; TCPS, single drug at L1 dose): 6.48%; Percent αSMA reduction, Average (female VICs [7]; single drug at L1 dose): 3.22%; Percent αSMA reduction, Average (female VICs [8]; single drug at L1 dose): 0.37%"
O=c1cc(N2CCOCC2)oc2c(-c3ccccc3)cccc12 [LY294002],12.8 µM,17.6 µM,6.86%,5.50%,13.23%,8.63 µM,13.4 µM,9.50%,2.75%,> 25%,-4.91%,11.35%,> 25%,-8.32%,21.5 µM,25.2 µM,46.9 µM,17.7 µM,21.3 µM,45.2 µM,
C[S+]([O-])c1ccc(-c2nc(-c3ccncc3)c(-c3ccc(F)cc3)[nH]2)cc1 (stereo not shown) [SB203580],24.8 µM,40.8 µM,5.45%,3.67%,,7.56 µM,14.5 µM,2.35%,-6.55%,> 25%,,,> 25%,,0.413 µM,2.18 µM,"1,613 uM",29.8 µM,48.9 µM,874 µM,
